Where a SMILES comes first, the peptide text is derived from it. [ ]: non-standard residue; d: D form. The star is where a group is joined. Biotinyl(3aR,4R,6aS) = O=C1N[C@@H]2[C@@H](CS[C@@H]2CCCCC(=O)*)N1; Phe(4-guanidino) = N=C(N)Nc1ccc(C[C@H](N)C(=O)O)cc1; Bpa = N[C@@H](Cc1ccc(C(=O)c2ccccc2)cc1)C(=O)O; X3 = O=C1N[C@@H]2CSC(CCCCC(=O)*)[C@@H]2N1; Phe(4-F) = N[C@@H](Cc1ccc(F)cc1)C(=O)O; X4 = O=C(c1ccccc1)c1ccc(CCC(=O)*)cc1; Orn = NCCC[C@H](N)C(=O)O; X1 = O=C(C=Cc1ccccc1)*; Propionyl = CCC(=O)*
Experiment: Human Thrombin receptor 1 (PAR-1) antagonistic ability to inhibit SFLLRN-NH2 (2.7 uM)-induced platelet aggregation

SMILES | IC50 [µM]
N=C(N)NCCC[C@H](NC(=O)[C@H](Cc1ccc(C(=O)c2ccccc2)cc1)NC(=O)[C@H](Cc1ccc(N=C(N)N)cc1)NC(=O)[C@H](Cc1ccc(F)cc1)NC(=O)C=Cc1ccccc1)C(=O)N[C@@H](CCCNC(=O)CCCC[C@H]1SC[C@H]2NC(=O)N[C@H]21)C(=O)O [(2S)-5-{5-[(3aR,4R,6aS)-2-oxo-hexahydro-1H-thieno[3,4-d]imidazolidin-4-yl]pentanamido}-2-[(2S)-2-[(2S)-3-(4-benzoylphenyl)-2-[(2S)-3-(4-carbamimidamidophenyl)-2-[(2S)-3-(4-fluorophenyl)-2-[(2E)-3-phenylprop-2-enamido]propanamido]propanamido]propanamido]-5-carbamimidamidopentanamido]pentanoic acid] (X1-[Phe(4-F)][Phe(4-guanidino)][Bpa]R[Orn](Biotinyl(3aR,4R,6aS))-OH) | 3.4
CC(C)C[C@H](NC(=O)[C@H](Cc1ccc(N=C(N)N)cc1)NC(=O)[C@H](Cc1ccc(F)cc1)NC(=O)C=Cc1ccccc1)C(=O)N[C@@H](Cc1ccc(C(=O)c2ccccc2)cc1)C(=O)N[C@@H](CCCNC(=O)CCCCC1SC[C@H]2NC(=O)N[C@@H]12)C(=O)O (stereo partly drawn) [(2S)-5-{5-[(3aR,6aS)-2-oxo-hexahydro-1H-thieno[3,4-d]imidazolidin-4-yl]pentanamido}-2-[(2S)-3-(4-benzoylphenyl)-2-[(2S)-2-[(2S)-3-(4-carbamimidamidophenyl)-2-[(2S)-3-(4-fluorophenyl)-2-[(2E)-3-phenylprop-2-enamido]propanamido]propanamido]-4-methylpentanamido]propanamido]pentanoic acid] (X1-[Phe(4-F)][Phe(4-guanidino)]L[Bpa][Orn](X3)-OH) | 9.7
CCC(=O)NCCC[C@H](NC(=O)[C@H](CCCNC(=N)N)NC(=O)[C@H](Cc1ccc(C(=O)c2ccccc2)cc1)NC(=O)[C@H](Cc1ccc(N=C(N)N)cc1)NC(=O)[C@H](Cc1ccc(F)cc1)NC(=O)C=Cc1ccccc1)C(=O)O [(S)-2-((S)-2-{(S)-3-(4-Benzoyl-phenyl)-2-[(S)-2-{(S)-3-(4-fluoro-phenyl)-2-[(E)-(3-phenyl-acryloyl)amino]-propionylamino}-3-(4-guanidino-phenyl)-propionylamino]-propionylamino}-5-guanidino-pentanoylamino)-5-propionylamino-pentanoic acid] (X1-[Phe(4-F)][Phe(4-guanidino)][Bpa]R[Orn](Propionyl)-OH) | 3.1
CCC(=O)NCCC[C@H](NC(=O)[C@H](Cc1ccc(C(=O)c2ccccc2)cc1)NC(=O)[C@H](CC(C)C)NC(=O)[C@H](Cc1ccc(N=C(N)N)cc1)NC(=O)[C@H](Cc1ccc(F)cc1)NC(=O)C=Cc1ccccc1)C(=O)O [(S)-2-((S)-3-(4-Benzoyl-phenyl)-2-{(S)-2-[(S)-2-{(S)-3-(4-fluoro-phenyl)-2-[(E)-(3-phenyl-acryloyl)amino]-propionylamino}-3-(4-guanidino-phenyl)-propionylamino]-4-methyl-pentanoylamino}-propionylamino)-5-propionylamino-pentanoic acid] (X1-[Phe(4-F)][Phe(4-guanidino)]L[Bpa][Orn](Propionyl)-OH) | 9
CC(C)C[C@H](NC(=O)[C@H](Cc1ccc(N=C(N)N)cc1)NC(=O)[C@H](Cc1ccc(F)cc1)NC(=O)CCc1ccc(C(=O)c2ccccc2)cc1)C(=O)N[C@@H](CCCNC(=N)N)C(=O)O [(S)-2-{(S)-2-[(S)-2-[(S)-2-[3-(4-Benzoyl-phenyl)-propionylamino]-3-(4-fluoro-phenyl)-propionylamino]-3-(4-guanidino-phenyl)-propionylamino]-4-methyl-pentanoylamino}-5-guanidino-pentanoic acid] (X4-[Phe(4-F)][Phe(4-guanidino)]LR-OH) | 3.1
CC(C)C[C@H](NC(=O)[C@H](Cc1ccc(N=C(N)N)cc1)NC(=O)[C@H](Cc1ccc(F)cc1)NC(=O)C=Cc1ccccc1)C(=O)N[C@@H](CCCNC(=N)N)C(=O)O [(S)-2-{(S)-2-[(S)-2-{(S)-3-(4-Fluoro-phenyl)-2-[(E)-(3-phenyl-acryloyl)amino]-propionylamino}-3-(4-guanidino-phenyl)-propionylamino]-4-methyl-pentanoylamino}-5-guanidino-pentanoic acid] (X1-[Phe(4-F)][Phe(4-guanidino)]LR-OH) | 0.3
N=C(N)NCCC[C@H](NC(=O)[C@H](Cc1ccc(C(=O)c2ccccc2)cc1)NC(=O)[C@H](Cc1ccc(N=C(N)N)cc1)NC(=O)[C@H](Cc1ccc(F)cc1)NC(=O)C=Cc1ccccc1)C(=O)O [(S)-2-{(S)-3-(4-Benzoyl-phenyl)-2-[(S)-2-{(S)-3-(4-fluoro-phenyl)-2-[(E)-(3-phenyl-acryloyl)amino]-propionylamino}-3-(4-guanidino-phenyl)-propionylamino]-propionylamino}-5-guanidino-pentanoic acid] (X1-[Phe(4-F)][Phe(4-guanidino)][Bpa]R-OH) | 6
CC(C)C[C@H](NC(=O)[C@H](Cc1ccc(N=C(N)N)cc1)NC(=O)[C@H](Cc1ccc(F)cc1)NC(=O)C=Cc1ccccc1)C(=O)N[C@@H](Cc1ccc(C(=O)c2ccccc2)cc1)C(=O)O [(S)-3-(4-Benzoyl-phenyl)-2-{(S)-2-[(S)-2-{(S)-3-(4-fluoro-phenyl)-2-[(E)-(3-phenyl-acryloyl)amino]-propionylamino}-3-(4-guanidino-phenyl)-propionylamino]-4-methyl-pentanoylamino}-propionic acid] (X1-[Phe(4-F)][Phe(4-guanidino)]L[Bpa]-OH) | 13

From BindingDB's records for doi:10.1016/s0960-894x(98)00730-6 (University At Stony Brook, 1999)
